The structures appear in SMILES notation. Some results are limits rather than exact numbers.

For one experiment, the target named is T1, VEGFR/KDR (Homo sapiens, UniProt P35968).
T1 construct: made in house; host or cells: Sf9 cells (Spodoptera frugiperda), baculovirus
In words: VEGFR/KDR kinase inhibition, DELFIA assay. As to conditions: ATP 0.6 uM (2x Km), enzyme 5 nM. It is filed as biochemical. In outline: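 Enzyme (5 nM) pre-incubated 4 min on ice with inhibitor and Mg-ATP (0.6 uM, 2× Km), then reacted 10-30 min at 30° C on immobilized poly(Glu4,Tyr). EDTA-quenched phosphotyrosine detected with Europium-labeled antibody by time-resolved fluorescence; IC50 from concentration series.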

In the next experiment the test system is CNV progression. As to the kind of experiment: In vivo choroidal neovascularization (CNV) model, laser-induced, intravitreal injection. Set-up: species or system Male Brown-Norway rats. Particulars: 240 h, rat; for inhibition in vivo at 10 nmol/eye: 10 nmol/eye injected on Day 3, CNV area on Day 10, vs vehicle; for inhibition in vivo at 3 nmol/eye: 3 nmol/eye injected on Day 3, CNV area on Day 10, vs vehicle. The text has this: This test measures the capacity of compounds to inhibit CNV progression. CNV is the main cause of severe vision loss in patients suffering from age-related macular degeneration (AMD).
Male Brown-Norway rats (Japan Clea Co., Ltd.) were used in these studies.
Rats were anesthetized by intraperitoneal injection of pentobarbital, and the right pupil was dilated with 0.5% tropicamide and 0.5% phenylephrine hydrochloride. The right eye received 6 laser burns between retinal vessels using a slit lamp delivery system of Green laser Photocoagulator (Nidex Inc., Japan), and microscope slide glass with Healon™ (AMO Inc) used as a contact lens. The laser power was 100 or 200 mW for 0.1 second and spot diameter was 100 μm. At the time of laser burn, bubble production was observed, which is an indication of rupture of Bruch's membrane which is important for CNV generation.
Rats were divided into the groups based on their body weight using SAS software (SAS institute Japan, R8.1) after laser irradiation (Day 0). After animals were anesthetized, and the right pupil dilated (as above mentioned), the right eye of the animal received the compound or vehicle by an injection (10 μL/eye) at doses of 10 or 3 nmol/eye on Day 3. The compounds were dissolved or suspended in CBS, PBS, or other adequate vehicles before injection.
On Day 10, the animals were anesthetized with ether, and high molecular weight fluorescein isothiocyanate (FITC)-dextran (SIGMA, 2×10^6 MW) was injected via a tail vein (20 mg/rat). About 30 min after FITC-dextran injection, animals were euthanized by ether or carbon dioxide, and the eyes were removed and fixed with 10% formaline neutral buffer solution. After over 1 hour of fixation, RPE-choroid-sclera flat mounts were obtained by removing cornea, lens and retina from the eyeballs. The flat mounts were mounted in 50% glycerol on a microscope slide, and the portion burned by laser was photographed using a fluorescence microscope (Nikon Corporation, excitation filter:465-495 nm, absorption filter:515-555 nm). The CNV area was obtained by measurement of hyper-fluorescence area observed on the photograph using Scion image.
The average CNV area of 6 burns was used as an individual value of CNV area, and the average CNV area of compound treated group was compared with that of the vehicle-treated group.

T1 sequence (P35968 806-1356): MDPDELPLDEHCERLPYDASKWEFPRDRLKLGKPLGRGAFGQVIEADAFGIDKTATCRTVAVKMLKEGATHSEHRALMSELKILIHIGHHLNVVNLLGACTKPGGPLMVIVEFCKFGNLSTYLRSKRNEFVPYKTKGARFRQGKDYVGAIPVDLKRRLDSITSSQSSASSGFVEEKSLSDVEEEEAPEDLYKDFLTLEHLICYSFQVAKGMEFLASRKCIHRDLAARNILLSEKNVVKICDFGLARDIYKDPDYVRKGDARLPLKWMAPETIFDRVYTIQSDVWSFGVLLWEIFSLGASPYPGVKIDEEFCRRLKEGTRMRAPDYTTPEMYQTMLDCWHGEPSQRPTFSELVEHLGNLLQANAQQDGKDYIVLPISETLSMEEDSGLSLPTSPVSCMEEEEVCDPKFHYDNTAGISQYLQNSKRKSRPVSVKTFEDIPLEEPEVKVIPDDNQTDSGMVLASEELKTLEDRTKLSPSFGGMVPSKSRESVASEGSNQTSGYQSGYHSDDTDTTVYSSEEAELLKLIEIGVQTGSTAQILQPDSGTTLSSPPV

Consider `O=C(Nc1ccc(Oc2ccnc3cc(-c4ccc(CN5CCN(CCO)CC5)cn4)sc23)c(F)c1)NC1CC1` [Compound 55, 1-cyclopropyl-3-(3-fluoro-4-(2-(5-((4-(2-hydroxyethyl)piperazin-l-yl)methyl)pyridin-2-yl)thieno[3,2-b]-pyridin-7-yloxy)phenyl)urea], for which the IC50 – broadly, the midpoint of a concentration-inhibition curve – against VEGFR/KDR was less than 50 nM. Also, the inhibition in vivo – broadly, the relative decrease from the control value, in per cent – at 10 nmol/eye in the experiment on CNV progression lay in the range of 40 to 60%.

The compound `CN(C)C(=O)CCN1CCN(Cc2ccc(-c3cc4nccc(Oc5ccc(NC(=O)NC6CC6)cc5F)c4s3)nc2)CC1` [Compound 83, 3-(4-((6-(7-(4-(3-cyclopropylureido)-2-luorophenoxy)thieno-[3,2-b]pyridin-2-yl)pyridin-3-yl)melhyl)piperazin-l-yl)-N,N-dimethyl-propanamide] registered an IC50 against VEGFR/KDR of less than 50 nM. Besides, the inhibition in vivo at 10 nmol/eye with CNV progression was 40 to 60%.

`COCCN(Cc1ccc(-c2cc3nccc(Oc4ccc(NC(=O)NC5CC5)cc4F)c3s2)nc1)C(=O)[C@H](C)O` [Compound 89, (S)-N-((6-(7-(4-(3-cyclopropylureido)-2-fluorophenoxy)thieno[3,2-b]pyridin-2-yl)pyridin-3-yl)methyl)-2-hydroxy-N-(2-methoxyethyl)propanamide]: on VEGFR/KDR, the IC50 was less than 50 nM. In the experiment with CNV progression, this compound displayed an inhibition in vivo at 10 nmol/eye of no less than 60%.

For the compound `COCCN(Cc1ccc(-c2cc3nccc(Oc4ccc(NC(=O)NC5CC5)cc4F)c3s2)nc1)C(=O)CS(C)(=O)=O` [Compound 90, N-((6-(7-(4-(3-cyclopropylureido)-2-fluorophenoxy)thieno[3,2-b]pyridin-2-yl)pyridin-3-yl)methyl)-N-(2-methoxyethyl)-2-(methylsulfonyl)acetamide], at VEGFR/KDR, the IC50 was less than 50 nM. Further, the inhibition in vivo at 10 nmol/eye in the experiment on CNV progression is no less than 60%.

For the compound `Cn1c(CN2CCCC2=O)cnc1-c1cc2nccc(Oc3ccc(NC(=O)NC4CC4)cc3F)c2s1` [Compound 137, 1-cyclopropyl-3-(3-fluoro-4-(2-(1-methyl-5-((2-oxopyrrolidin-1-yl)methyl)-1H-imidazol-2-yl)thieno[3,2-b]pyridin-7-yloxy)phenyl)urea], at VEGFR/KDR, the IC50 was less than 50 nM. The same compound came in with an inhibition in vivo at 10 nmol/eye in the experiment on CNV progression of 40 to 60%.

Compound `O=C(Nc1ccc(Oc2ccnc3cc(-c4ccc(CN5CCCS5(=O)=O)cn4)sc23)c(F)c1)NC1CC1` [Compound 142, 1-cyclopropyl-3-(3-fluoro-4-(2-(5-(2,2-dioxo-2-thiapyrrolidin-1-ylmethyl)pyridin-2-yl)thieno[3,2-b]pyridin-7-yloxy)phenyl)urea] yielded an IC50 against VEGFR/KDR of less than 50 nM. Moreover, the inhibition in vivo at 10 nmol/eye in the experiment on CNV progression fell in the range of 40 to 60%.

With `CN1CCN(CCn2cc(-c3cc4nccc(Oc5ccc(NC(=O)NC6CC6)cc5F)c4s3)cn2)CC1` [Compound 154, 1-cyclopropyl-3-(3-fluoro-4-(2-(1-(2-(4-methylpiperazin-1-yl)ethyl)-1H-pyrazol-4-yl)thieno[3,2-b]pyridin-7-yloxy)phenyl)urea], the IC50 at VEGFR/KDR was less than 50 nM. The compound further gave an inhibition in vivo at 3 nmol/eye in the experiment on CNV progression of 40 to 60%.

`CC(C)N(CCN1CCN(C(=O)c2ccc(-c3cc4nccc(Oc5ccc(NC(=O)NC6CC6)cc5F)c4s3)nc2)CC1)C(C)C` [Compound 230, 1-cyclopropyl-3-(4-(2-(5-(4-(2-(diisopropylamino)ethyl)piperazine-1-carbonyl)pyridin-2-yl)thieno[3,2-b]pyridin-7-yloxy)-3-fluorophenyl)urea]: on VEGFR/KDR, the half-inhibitory concentration (IC50) was less than 50 nM. This compound also gave an inhibition in vivo at 3 nmol/eye with CNV progression of 40 to 60%.

`CN1CCC(CN2CCN(C(=O)c3ccc(-c4cc5nccc(Oc6ccc(NC(=O)NC7CC7)cc6F)c5s4)nc3)CC2)CC1` [Compound 232, 1-cyclopropyl-3-(3-fluoro-4-(2-(5-(4-((1-methylpiperidin-4-yl)methyl)piperazine-1-carbonyl)pyridin-2-yl)thieno[3,2-b]pyridin-7-yloxyl)phenyl)urea] had an IC50 on VEGFR/KDR of less than 50 nM. The compound also showed an inhibition in vivo at 3 nmol/eye in the experiment on CNV progression of 40 to 60%.

`COCCNCCc1ccc(-c2cc3nccc(Oc4ccc(NC(=O)NC5CC5)cc4F)c3s2)nc1` [Compound 288, 1-cyclopropyl-3-(3-fluoro-4-(2-(5-(2-(2-methoxyethylamino)ethyl)pyridin-2-yl)thieno[3,2-b]pyridin-7-yloxy)phenyl)urea] yielded an IC50 at VEGFR/KDR of less than 50 nM. In the experiment with CNV progression, the inhibition in vivo at 10 nmol/eye lay within 40 to 60%.

The values above are taken from patent publication US8906852B2 (MethylGene Inc., priority 2010, dated 2014).
